Assay results as given in ChEMBL document CHEMBL5291721, “A preclinical secondary pharmacology resource illuminates target-adverse drug reaction associations of marketed drugs” (Nat Commun, 2023).

How the values were obtained:
[1] = molecular target: Sodium-dependent noradrenaline transporter (Homo sapiens, UniProt P23975)
[2] = molecular target: T1, Alpha-1A adrenergic receptor (Homo sapiens, UniProt P35348); assay type: functional, cell-based
T1 sequence (P35348 whole entry): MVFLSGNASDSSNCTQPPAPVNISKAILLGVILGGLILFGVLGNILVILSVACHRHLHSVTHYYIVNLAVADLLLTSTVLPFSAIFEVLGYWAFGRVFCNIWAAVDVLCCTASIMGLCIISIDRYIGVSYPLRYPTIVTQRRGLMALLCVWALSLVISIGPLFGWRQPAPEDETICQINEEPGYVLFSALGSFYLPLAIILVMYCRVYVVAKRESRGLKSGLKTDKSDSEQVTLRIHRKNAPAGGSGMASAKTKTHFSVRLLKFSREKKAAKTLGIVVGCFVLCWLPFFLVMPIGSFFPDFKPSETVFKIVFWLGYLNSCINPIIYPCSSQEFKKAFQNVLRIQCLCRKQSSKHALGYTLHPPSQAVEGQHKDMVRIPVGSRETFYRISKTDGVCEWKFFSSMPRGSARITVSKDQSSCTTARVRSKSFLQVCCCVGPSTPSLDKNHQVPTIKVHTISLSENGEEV

D(3) dopamine receptor = D(3) dopamine receptor (Homo sapiens, UniProt P35462)
Thromboxane A2 receptor [3] = molecular target: T2, Thromboxane A2 receptor (Homo sapiens, UniProt P21731); assay type: functional, cell-based
T2 sequence (P21731 whole entry): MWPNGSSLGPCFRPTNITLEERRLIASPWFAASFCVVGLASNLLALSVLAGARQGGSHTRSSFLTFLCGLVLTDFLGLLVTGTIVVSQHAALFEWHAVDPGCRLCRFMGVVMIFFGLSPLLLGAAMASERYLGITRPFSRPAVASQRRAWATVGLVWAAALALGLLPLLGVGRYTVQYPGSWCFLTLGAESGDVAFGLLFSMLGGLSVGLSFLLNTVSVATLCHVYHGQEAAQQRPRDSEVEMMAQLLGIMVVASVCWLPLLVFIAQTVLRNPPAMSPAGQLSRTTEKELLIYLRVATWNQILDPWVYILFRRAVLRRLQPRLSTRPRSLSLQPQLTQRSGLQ

[4] = molecular target: 5-hydroxytryptamine receptor 2B (Homo sapiens, UniProt P41595); assay type: functional, cell-based
[5] = molecular target: T3, Amine oxidase [flavin-containing] A (Homo sapiens, UniProt P21397); assay type: functional
T3 sequence (P21397 whole entry): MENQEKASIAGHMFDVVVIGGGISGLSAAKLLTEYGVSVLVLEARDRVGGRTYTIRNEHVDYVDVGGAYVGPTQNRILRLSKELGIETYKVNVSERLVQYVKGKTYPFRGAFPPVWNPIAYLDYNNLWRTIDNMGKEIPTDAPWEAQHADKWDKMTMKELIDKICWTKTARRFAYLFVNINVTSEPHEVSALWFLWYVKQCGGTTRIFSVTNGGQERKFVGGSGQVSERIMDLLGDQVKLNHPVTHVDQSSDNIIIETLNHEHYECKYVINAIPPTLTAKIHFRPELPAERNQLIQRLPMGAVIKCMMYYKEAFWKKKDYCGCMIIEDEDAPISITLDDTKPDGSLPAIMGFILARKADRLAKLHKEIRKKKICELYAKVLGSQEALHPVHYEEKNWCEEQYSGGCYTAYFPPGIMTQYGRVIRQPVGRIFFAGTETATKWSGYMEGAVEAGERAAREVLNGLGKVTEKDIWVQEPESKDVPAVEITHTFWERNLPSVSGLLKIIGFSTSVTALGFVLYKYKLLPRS

D(1A) dopamine receptor = D(1A) dopamine receptor (Homo sapiens, UniProt P21728)
[6] = molecular target: Vascular endothelial growth factor receptor 2 (Homo sapiens, UniProt P35968); assay type: functional
Thromboxane A2 receptor [7] = molecular target: T2, Thromboxane A2 receptor; assay type: functional, cell-based; remark: listed apart in the source
[8] = molecular target: 3',5'-cyclic-AMP phosphodiesterase 4A (Homo sapiens, UniProt P27815); assay type: functional
[9] = molecular target: T4, Alpha-2A adrenergic receptor (Homo sapiens, UniProt P08913)
T4 sequence (P08913 whole entry): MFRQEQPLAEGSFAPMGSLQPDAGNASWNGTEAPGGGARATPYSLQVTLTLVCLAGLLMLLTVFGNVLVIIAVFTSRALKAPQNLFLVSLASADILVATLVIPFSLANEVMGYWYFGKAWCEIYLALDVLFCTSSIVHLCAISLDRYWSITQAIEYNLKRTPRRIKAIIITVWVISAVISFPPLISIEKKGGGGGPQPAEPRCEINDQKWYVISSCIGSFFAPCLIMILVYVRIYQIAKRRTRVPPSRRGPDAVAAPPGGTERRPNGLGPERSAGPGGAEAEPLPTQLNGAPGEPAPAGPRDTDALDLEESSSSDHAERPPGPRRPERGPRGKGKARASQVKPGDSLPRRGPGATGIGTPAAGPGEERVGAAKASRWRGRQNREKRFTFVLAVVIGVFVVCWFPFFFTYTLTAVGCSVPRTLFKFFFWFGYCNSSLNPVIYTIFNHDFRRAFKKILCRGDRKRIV

Estrogen receptor = molecular target: T5, Estrogen receptor (Homo sapiens, UniProt P03372)
T5 sequence (P03372 whole entry): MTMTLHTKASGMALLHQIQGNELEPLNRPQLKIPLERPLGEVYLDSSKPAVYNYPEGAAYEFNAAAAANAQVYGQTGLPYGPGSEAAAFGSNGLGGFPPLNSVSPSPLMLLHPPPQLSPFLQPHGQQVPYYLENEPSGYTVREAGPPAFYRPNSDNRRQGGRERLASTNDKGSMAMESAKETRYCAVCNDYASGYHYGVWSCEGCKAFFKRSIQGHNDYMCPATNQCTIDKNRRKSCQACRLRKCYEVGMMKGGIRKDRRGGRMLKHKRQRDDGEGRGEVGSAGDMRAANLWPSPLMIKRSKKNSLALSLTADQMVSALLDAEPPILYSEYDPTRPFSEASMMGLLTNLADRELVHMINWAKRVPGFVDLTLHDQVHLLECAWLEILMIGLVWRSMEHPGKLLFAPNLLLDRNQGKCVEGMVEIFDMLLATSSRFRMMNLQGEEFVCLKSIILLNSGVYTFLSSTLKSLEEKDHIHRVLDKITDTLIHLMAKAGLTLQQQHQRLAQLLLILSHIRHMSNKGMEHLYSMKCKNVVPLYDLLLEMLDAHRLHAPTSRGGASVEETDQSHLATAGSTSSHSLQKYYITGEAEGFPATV
Also: assay procedure not described here.

Chain of 3',5'-cyclic-AMP phosphodiesterase 4A (P27815 whole entry): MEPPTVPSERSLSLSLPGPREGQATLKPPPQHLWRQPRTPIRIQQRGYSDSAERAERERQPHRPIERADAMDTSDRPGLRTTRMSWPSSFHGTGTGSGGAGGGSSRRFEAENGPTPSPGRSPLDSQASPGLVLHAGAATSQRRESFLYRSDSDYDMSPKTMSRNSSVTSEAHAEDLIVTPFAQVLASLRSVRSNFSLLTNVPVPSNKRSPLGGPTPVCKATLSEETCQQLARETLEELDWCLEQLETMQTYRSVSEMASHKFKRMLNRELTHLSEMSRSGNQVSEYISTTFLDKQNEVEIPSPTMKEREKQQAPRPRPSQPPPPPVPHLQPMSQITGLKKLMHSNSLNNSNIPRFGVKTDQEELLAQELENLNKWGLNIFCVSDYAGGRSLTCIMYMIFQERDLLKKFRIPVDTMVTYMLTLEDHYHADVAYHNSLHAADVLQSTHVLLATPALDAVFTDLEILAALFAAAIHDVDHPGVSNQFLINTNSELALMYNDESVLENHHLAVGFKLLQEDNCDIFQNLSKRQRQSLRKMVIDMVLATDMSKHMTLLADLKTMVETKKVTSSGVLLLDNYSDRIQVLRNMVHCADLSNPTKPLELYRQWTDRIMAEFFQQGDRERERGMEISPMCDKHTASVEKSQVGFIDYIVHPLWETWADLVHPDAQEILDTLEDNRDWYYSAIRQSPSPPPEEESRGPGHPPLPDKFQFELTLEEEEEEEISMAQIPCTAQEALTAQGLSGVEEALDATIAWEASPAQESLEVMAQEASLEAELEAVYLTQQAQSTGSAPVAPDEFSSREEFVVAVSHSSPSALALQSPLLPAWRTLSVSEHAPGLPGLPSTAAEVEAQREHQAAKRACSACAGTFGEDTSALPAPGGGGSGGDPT
Chain of 5-hydroxytryptamine receptor 2B (P41595 whole entry): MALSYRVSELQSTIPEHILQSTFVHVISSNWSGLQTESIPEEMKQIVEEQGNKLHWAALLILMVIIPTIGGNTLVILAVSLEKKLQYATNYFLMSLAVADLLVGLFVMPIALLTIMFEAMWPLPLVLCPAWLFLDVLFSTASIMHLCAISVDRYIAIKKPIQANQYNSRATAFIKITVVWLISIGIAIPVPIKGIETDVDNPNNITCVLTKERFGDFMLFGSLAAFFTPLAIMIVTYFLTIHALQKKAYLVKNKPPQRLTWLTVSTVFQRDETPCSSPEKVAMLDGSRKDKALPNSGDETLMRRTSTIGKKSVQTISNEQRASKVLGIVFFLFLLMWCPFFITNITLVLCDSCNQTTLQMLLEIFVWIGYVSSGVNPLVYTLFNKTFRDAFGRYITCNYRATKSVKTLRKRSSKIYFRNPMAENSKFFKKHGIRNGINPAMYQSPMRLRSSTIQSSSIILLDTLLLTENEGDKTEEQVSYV
Chain of Vascular endothelial growth factor receptor 2 (P35968 whole entry): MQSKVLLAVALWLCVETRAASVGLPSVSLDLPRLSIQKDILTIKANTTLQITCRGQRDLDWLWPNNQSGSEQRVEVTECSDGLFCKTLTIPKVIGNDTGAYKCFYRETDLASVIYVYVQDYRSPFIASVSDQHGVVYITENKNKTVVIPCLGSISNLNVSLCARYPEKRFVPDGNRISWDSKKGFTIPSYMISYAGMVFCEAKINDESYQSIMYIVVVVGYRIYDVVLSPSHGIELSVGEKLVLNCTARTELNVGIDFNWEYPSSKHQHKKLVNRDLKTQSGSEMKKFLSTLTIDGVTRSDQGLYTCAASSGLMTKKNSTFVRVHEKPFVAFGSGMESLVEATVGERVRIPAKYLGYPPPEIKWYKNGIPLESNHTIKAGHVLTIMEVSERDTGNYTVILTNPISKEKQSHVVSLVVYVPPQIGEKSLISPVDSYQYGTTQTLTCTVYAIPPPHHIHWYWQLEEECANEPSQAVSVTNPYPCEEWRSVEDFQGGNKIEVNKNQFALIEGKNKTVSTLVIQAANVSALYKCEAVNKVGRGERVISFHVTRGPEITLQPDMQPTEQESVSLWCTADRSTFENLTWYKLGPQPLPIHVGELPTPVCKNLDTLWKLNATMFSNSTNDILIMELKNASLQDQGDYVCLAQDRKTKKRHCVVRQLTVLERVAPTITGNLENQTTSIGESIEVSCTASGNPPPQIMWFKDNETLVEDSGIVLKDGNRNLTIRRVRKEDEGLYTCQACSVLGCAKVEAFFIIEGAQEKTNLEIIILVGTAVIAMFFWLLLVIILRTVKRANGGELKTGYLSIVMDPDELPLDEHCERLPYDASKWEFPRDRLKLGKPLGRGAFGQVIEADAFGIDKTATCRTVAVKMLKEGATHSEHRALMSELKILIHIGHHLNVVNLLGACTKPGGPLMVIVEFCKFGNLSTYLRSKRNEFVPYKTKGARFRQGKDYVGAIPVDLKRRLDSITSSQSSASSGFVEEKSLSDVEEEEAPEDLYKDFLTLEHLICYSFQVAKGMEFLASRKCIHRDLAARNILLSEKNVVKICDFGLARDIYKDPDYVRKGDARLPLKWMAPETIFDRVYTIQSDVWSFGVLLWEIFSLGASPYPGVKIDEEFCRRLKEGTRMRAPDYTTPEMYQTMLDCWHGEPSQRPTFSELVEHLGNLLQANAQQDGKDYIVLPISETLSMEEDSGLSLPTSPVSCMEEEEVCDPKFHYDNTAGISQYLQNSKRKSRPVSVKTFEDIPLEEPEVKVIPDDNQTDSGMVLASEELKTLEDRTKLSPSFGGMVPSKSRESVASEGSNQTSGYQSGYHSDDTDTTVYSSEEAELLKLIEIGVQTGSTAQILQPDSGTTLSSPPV
Chain of Sodium-dependent noradrenaline transporter (P23975 whole entry): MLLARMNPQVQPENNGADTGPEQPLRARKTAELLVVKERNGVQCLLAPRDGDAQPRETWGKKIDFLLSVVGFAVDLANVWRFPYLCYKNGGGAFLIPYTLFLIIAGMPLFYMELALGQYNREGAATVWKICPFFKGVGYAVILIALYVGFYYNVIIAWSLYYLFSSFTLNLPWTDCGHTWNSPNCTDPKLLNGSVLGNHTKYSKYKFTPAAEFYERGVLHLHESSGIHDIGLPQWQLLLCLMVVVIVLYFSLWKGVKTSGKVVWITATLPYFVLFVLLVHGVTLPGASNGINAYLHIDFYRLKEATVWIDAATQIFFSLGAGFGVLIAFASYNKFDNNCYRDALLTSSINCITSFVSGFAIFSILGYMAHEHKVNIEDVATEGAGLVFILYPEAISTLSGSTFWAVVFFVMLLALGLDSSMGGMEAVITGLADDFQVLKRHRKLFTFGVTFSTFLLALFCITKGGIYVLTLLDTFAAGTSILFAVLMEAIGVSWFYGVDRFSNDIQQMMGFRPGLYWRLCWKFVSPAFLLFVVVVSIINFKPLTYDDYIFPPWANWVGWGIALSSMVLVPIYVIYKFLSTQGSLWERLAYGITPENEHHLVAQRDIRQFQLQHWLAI
Chain of D(3) dopamine receptor (P35462 whole entry): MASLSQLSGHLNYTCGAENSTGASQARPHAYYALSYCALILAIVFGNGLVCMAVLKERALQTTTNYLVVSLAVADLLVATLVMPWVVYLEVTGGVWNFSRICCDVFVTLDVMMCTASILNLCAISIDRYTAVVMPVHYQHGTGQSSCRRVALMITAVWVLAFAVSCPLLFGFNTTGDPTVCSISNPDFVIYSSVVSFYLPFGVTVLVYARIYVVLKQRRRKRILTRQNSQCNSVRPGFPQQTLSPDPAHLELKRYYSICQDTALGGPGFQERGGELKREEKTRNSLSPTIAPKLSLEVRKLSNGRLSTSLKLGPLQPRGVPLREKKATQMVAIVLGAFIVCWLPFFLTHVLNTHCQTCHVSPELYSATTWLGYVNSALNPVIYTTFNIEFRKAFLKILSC
Chain of D(1A) dopamine receptor (P21728 whole entry): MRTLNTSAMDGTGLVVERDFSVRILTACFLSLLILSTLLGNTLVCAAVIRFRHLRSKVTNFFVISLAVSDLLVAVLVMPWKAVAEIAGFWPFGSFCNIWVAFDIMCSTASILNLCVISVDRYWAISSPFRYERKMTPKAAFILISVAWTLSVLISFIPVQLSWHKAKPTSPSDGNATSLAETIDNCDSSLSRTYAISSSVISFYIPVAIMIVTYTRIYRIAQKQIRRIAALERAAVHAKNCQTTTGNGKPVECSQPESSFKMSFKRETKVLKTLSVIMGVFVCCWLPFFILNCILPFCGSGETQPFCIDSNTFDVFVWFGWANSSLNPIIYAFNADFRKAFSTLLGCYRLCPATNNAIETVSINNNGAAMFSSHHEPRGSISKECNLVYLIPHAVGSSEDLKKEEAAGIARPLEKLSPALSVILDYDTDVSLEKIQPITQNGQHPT

| Structure (SMILES) | AC50 [1] [µM] | AC50 [2] [µM] | AC50 (D(3) dopamine receptor) [µM] | AC50 (Thromboxane A2 receptor [3]) [µM] | AC50 [4] [µM] | AC50 [5] [µM] | AC50 (D(1A) dopamine receptor) [µM] | AC50 [6] [µM] | AC50 (Thromboxane A2 receptor [7]) [µM] | AC50 [8] [µM] | AC50 [9] [µM] | AC50 (Estrogen receptor) [µM] |
| --- | --- | --- | --- | --- | --- | --- | --- | --- | --- | --- | --- | --- |
| C[C@H]1C[C@H]2[C@@H]3CCC4=CC(=O)C=C[C@]4(C)[C@@]3(F)[C@@H](O)C[C@]2(C)[C@@]1(O)C(=O)CO [BETAMETHASONE] | > 30 | > 30 | > 30 | > 30 | > 30 | > 30 | > 30 | > 30 | > 30 | > 30 | > 30 | – |
| O=c1[nH]c(=O)n([C@H]2C[C@H](O)[C@@H](CO)O2)cc1/C=C/Br [BRIVUDINE] | > 30 | > 30 | > 30 | > 30 | > 30 | > 30 | > 30 | > 30 | > 30 | > 30 | > 30 | – |
| Nc1ccn(C[C@@H](CO)OCP(=O)(O)O)c(=O)n1 [CIDOFOVIR] | > 30 | > 30 | > 30 | > 30 | > 30 | > 30 | > 30 | > 30 | > 30 | > 30 | > 30 | – |
| Cc1cccc(C)c1NC(=O)CN(CC(=O)O)CC(=O)O [LIDOFENIN] | > 30 | > 30 | > 30 | > 30 | > 30 | > 30 | > 30 | > 30 | > 30 | > 30 | > 30 | – |
| CCn1c(=O)c2c(nc(/C=C/c3ccc(OC)c(OC)c3)n2C)n(CC)c1=O [ISTRADEFYLLINE] | > 30 | > 30 | – | > 30 | > 30 | > 30 | > 30 | > 10 | > 30 | 2.77 | > 10 | – |
| C#C[C@]1(OC(C)=O)CC[C@H]2[C@@H]3CCC4=CC(=O)CC[C@@H]4[C@H]3CC[C@@]21C [NORETHINDRONE ACETATE] | 19.1 | 5.91 | > 30 | > 30 | > 30 | > 30 | > 30 | > 30 | 9.74 | > 30 | > 30 | – |
| CCOC1O[C@H]([C@@H](COCc2ccccc2)OCc2ccccc2)[C@H](OCc2ccccc2)[C@H]1O (stereo partly drawn) [TRIBENOSIDE] | > 30 | 15.2 | – | > 30 | > 30 | > 30 | > 30 | > 30 | 11.9 | > 30 | > 30 | – |
| CC(C)NC[C@H](O)COc1ccc(CCOCC2CC2)cc1 [LEVOBETAXOLOL] | > 30 | > 30 | > 30 | > 30 | > 30 | > 30 | > 30 | > 30 | > 30 | > 30 | > 30 | – |
| Cc1ncc(CO)c(CO)c1O [PYRIDOXINE] | > 30 | > 30 | > 30 | > 30 | > 30 | > 30 | > 30 | > 30 | > 30 | > 30 | > 30 | – |
| N[C@@H](Cc1ccc(O)cc1)C(=O)O [TYROSINE] | > 30 | > 30 | > 30 | > 30 | > 30 | > 30 | > 30 | > 30 | > 30 | > 30 | > 30 | – |
| CC1=C(/C=C/C(C)=C/C=C/C(C)=C\C(=O)O)C(C)(C)CCC1 [ISOTRETINOIN] | > 30 | > 30 | > 30 | > 30 | > 30 | > 30 | > 30 | > 30 | > 30 | > 30 | > 30 | – |
| CC1=C(/C=C/C(C)=C\C=C\C(C)=C\C(=O)O)C(C)(C)CCC1 [ALITRETINOIN] | > 30 | > 30 | > 30 | > 30 | > 30 | > 30 | > 30 | > 30 | > 30 | > 30 | > 30 | – |
| Cn1c(CCCC(=O)O)nc2cc(N(CCCl)CCCl)ccc21 [BENDAMUSTINE] | > 30 | > 30 | > 30 | > 30 | > 30 | > 30 | > 30 | – | > 30 | > 30 | > 30 | > 30 |
| COc1cccc2c1C(=O)c1c(O)c3c(c(O)c1C2=O)C[C@@](O)(C(=O)CO)C[C@@H]3O[C@H]1C[C@H](N)[C@@H](O)[C@H](C)O1 [EPIRUBICIN] | > 30 | > 1 | > 30 | 8.17 | > 30 | > 30 | > 30 | – | > 30 | 19.3 | > 30 | > 30 |
| COc1cccc2c1C(=O)c1c(O)c3c(c(O)c1C2=O)C[C@@](O)(C(=O)CO)C[C@@H]3O[C@H]1C[C@H](N)[C@H](O)[C@H](C)O1 [DOXORUBICIN] | > 30 | > 30 | > 30 | 24.7 | > 30 | > 30 | > 30 | – | > 3 | > 30 | > 30 | > 30 |
